Results on four compounds are retold here after patent publication US12391737B2, “Soluble NPY2 receptor agonists” (Boehringer Ingelheim International GmbH, priority 2020, dated 2025).

Molecules are shown by their SMILES.

In series [1] the target is T1, Human Neuropeptide Y2 Receptor (Homo sapiens, UniProt P49146).
T1 construct: purchased CHEMICON HTS066M
T1 sequence (P49146 1-381): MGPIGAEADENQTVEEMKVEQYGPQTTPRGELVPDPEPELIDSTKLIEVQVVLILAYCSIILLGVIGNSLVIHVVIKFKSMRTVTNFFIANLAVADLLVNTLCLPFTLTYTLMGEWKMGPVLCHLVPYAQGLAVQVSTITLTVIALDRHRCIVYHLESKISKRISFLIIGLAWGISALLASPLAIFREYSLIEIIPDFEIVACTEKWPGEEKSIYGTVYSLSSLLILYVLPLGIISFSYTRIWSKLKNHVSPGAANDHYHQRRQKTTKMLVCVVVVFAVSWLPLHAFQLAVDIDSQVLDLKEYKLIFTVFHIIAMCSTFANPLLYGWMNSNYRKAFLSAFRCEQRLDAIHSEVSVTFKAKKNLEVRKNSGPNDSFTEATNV
Kind of series: Radioligand binding competition assay (RLB). As to conditions: Table 3, 125I-PYY(1-36) competition; read-out: Ki. The procedure, abridged: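 IC50 values come from sigmoidal dose-response fits of scintillation counts after peptides competed for radioligand binding at receptor membranes (0.5 μg protein/well). Incubation ran 2 h at room temperature in HEPES buffer, pH 7.4, with Mg2+, Ca2+ and 0.2% ovalbumin.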

Series [2] addresses T2, human NPY1 receptor (hY1R) (Homo sapiens, UniProt P25929).
T2 construct: expressed in transfected cells; host or cells: CHO-K1
T2 sequence (P25929 1-384): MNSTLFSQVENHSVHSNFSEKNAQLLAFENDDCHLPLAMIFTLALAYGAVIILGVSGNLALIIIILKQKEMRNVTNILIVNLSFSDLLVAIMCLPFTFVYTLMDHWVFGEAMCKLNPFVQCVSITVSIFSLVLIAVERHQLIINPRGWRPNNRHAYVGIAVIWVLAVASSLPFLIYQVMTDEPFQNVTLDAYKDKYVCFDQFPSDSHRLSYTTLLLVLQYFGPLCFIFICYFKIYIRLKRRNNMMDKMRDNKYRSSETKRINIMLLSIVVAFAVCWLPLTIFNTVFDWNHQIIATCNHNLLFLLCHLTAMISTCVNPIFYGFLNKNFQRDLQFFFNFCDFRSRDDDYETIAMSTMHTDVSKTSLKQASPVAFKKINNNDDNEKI
Kind of series: HTRF cAMP Gi assay, hY1R. The series is classed as cell-based. As to conditions: CHO-K1 cells.

The target in series [3] is T3, human NPY4 receptor (hY4R) (Homo sapiens, UniProt P50391).
T3 construct: expressed in transfected cells; host or cells: CHO-K1
T3 sequence (P50391 whole entry): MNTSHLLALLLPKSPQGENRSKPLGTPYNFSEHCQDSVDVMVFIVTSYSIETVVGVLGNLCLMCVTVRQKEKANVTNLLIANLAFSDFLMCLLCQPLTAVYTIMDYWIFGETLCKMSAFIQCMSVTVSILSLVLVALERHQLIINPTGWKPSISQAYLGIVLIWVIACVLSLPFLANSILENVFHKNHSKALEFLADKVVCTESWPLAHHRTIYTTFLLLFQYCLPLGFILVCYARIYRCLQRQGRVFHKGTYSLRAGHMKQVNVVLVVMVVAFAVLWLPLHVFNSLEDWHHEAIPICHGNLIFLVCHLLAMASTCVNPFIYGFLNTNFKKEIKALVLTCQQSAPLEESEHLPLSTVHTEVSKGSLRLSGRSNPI
Kind of series: HTRF cAMP Gi assay, hY4R. The series is classed as cell-based. As to conditions: CHO-K1 cells. For orientation: TR-FRET usually uses a lanthanide donor and a delayed reading to cut background.
Method: Briefly, the production of intracellular cAMP will generate a competition between unlabeled cAMP and exogenously added d2-cAMP for anti-cAMP antibodies conjugated to cryptate. CHO-K1 cells stably expressing the human NPY1, NPY2, NPY4 and NPY5 receptors were used with the cells brought to life from a frozen stock immediately before assay performance. 2000 cells per well were applied for all four NPY receptor subtype assays. A 384-well format was used applying a total volume of 20 μl using 5 μl cells, 2.5 μl peptide agonist, 2.5 μl forskolin and 5 μl of each of the fluorophores. […] Concentration-response evaluation of compounds was performed with 11 concentrations of agonist peptides (covering 3 decades). EC50 values were calculated by nonlinear regression using sigmoid concentration-response with variable slope.

Another series in a line: Solubility determination. As to conditions: for Sol6: pH 6; for Sol7: pH 7. The procedure, abridged: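 First, TFA-salt peptide was added to 0.1 M sodium diphosphate (pH 6.4 or 7.0) to 10 mg/ml and shaken 2 h at room temperature. Next, insoluble material was filtered off. Finally, filtrate and control, each 1 mg/ml in 50% acetonitrile, were compared by reversed-phase chromatography.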

The target of series [4] is T4, human NPY2 receptor (hY2R) (Homo sapiens, UniProt P49146).
T4 sequence (P49146 1-381): T1 sequence (P49146 1-381)
The experiment in a line: HTRF cAMP Gi assay, hY2R.
From the text: The Homogenous Time Resolved fluorescence (HTRF) technology optimized for Gi coupled receptors has thoroughly been described in Cisbio cAMP Gi kit manual. Briefly, the production of intracellular cAMP will generate a competition between unlabeled cAMP and exogenously added d2-cAMP for anti-cAMP antibodies conjugated to cryptate. CHO-K1 cells stably expressing the human NPY1, NPY2, NPY4 and NPY5 receptors were used with the cells brought to life from a frozen stock immediately before assay performance. 2000 cells per well were applied for all four NPY receptor subtype assays. A 384-well format was used applying a total volume of 20 μl using 5 μl cells, 2.5 μl peptide agonist, 2.5 μl forskolin and 5 μl of each of the fluorophores. […] Concentration-response evaluation of compounds was performed with 11 concentrations of agonist peptides (covering 3 decades). EC50 values were calculated by nonlinear regression using sigmoid concentration-response with variable slope.

The target of series [5] is T5, human NPY5 receptor (hY5R) (Homo sapiens, UniProt Q15761).
T5 sequence (Q15761 1-445): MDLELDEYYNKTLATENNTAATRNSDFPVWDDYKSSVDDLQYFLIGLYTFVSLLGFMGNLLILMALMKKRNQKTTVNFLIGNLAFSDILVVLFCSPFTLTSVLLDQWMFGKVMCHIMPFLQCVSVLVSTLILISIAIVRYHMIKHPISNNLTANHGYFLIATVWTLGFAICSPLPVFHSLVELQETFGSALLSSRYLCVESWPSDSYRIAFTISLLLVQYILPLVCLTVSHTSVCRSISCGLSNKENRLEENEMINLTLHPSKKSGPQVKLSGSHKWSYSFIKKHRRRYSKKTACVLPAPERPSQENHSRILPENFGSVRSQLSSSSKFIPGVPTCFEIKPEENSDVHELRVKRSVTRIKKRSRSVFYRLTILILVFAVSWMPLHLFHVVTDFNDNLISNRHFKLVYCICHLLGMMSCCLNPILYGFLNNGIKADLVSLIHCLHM
Kind of series: HTRF cAMP Gi assay, hY5R.

For `CC(C)CC(=O)N[C@@H](C)C(=O)N1CCC[C@H]1C(=O)N[C@@H](CCC(=O)O)C(=O)N[C@@H](CCCCNC(=O)CCCCCNC(=O)CC[C@H](NC(=O)CCCCCCCCCCCCCCCCC(=O)O)C(=O)O)C(=O)N1CCC[C@H]1C(=O)N[C@@H](CCC(=O)O)C(=O)N[C@@H](CCC(=O)O)C(=O)N[C@@H](CC(=O)O)C(=O)N[C@@H](C)C(=O)N[C@@H](CCC(=O)O)C(=O)N1CCC[C@H]1C(=O)N[C@@H](CCC(=O)O)C(=O)N[C@@H](CCC(=O)O)C(=O)N[C@H](C(=O)N[C@@H](CCC(N)=O)C(=O)N[C@@H](CCCNC(=N)N)C(=O)N[C@@H](Cc1ccc(O)cc1)C(=O)N[C@@H](Cc1ccc(O)cc1)C(=O)N[C@H](C(=O)N[C@@H](CO)C(=O)N[C@@H](CC(C)C)C(=O)N[C@@H](CCCNC(=N)N)C(=O)N[C@@H](Cc1c[nH]cn1)C(=O)N[C@@H](Cc1ccc(O)cc1)C(=O)N[C@@H](Cc1ccc(O)cc1)C(=O)N[C@@H](CC(N)=O)C(=O)N[C@@H](Cc1c[nH]c2ccccc12)C(=O)N[C@@H](CC(C)C)C(=O)N[C@H](C(=O)N[C@@H](CCCNC(=N)N)C(=O)N[C@@H](CCC(N)=O)C(=O)N[C@@H](CCCNC(=N)N)C(=O)N[C@@H](Cc1ccc(O)cc1)C(N)=O)[C@@H](C)O)C(C)C)C(C)C` [Compound 53, N{alpha-4}-(3-methylbutanoyl)-N{epsilon-7}-(6-[(4S)-4-carboxy-4-(17-carboxyheptadecanamido)butanamido]hexanoyl)-[4A,7K,9E,13E,17V,18Q,22V,28Y,30W,31L]-hPYY(4-36)], the Ki – broadly, a dissociation constant, usually derived from enzyme kinetics or from competition with a known ligand – in series [1] turned out to be 3.07 nM. In addition, the EC50 – broadly, the concentration at which the effect is half-maximal – in series [2] is more than 5000 nM; in series [3], more than 5000 nM; in series [4] it was 0.352 nM; in series [5], more than 5000 nM. The “Sol6” value in the series “Solubility determination” turned out to be 8.7 mg/mL. The “Sol7” value in the series “Solubility determination” amounted to 9.6 mg/mL.

With `CC[C@H](C)[C@H](NC(=O)[C@H](CCC(=O)O)NC(=O)[C@H](CCC(=O)O)NC(=O)[C@H](CCC(=O)O)NC(=O)[C@H](CO)NC(=O)[C@H](C)NC(=O)[C@H](CC(=O)O)NC(=O)[C@H](CCC(=O)O)NC(=O)[C@H](CCC(=O)O)NC(=O)[C@@H]1CCCN1C(=O)[C@H](CCCCNC(=O)CCCCCNC(=O)CC[C@H](NC(=O)CCCCCCCCCCCCCCCCC(=O)O)C(=O)O)NC(=O)[C@H](CCC(=O)O)NC(=O)[C@@H]1CCCN1C(=O)[C@H](C)NC(=O)CC(C)C)C(=O)N[C@@H](CCC(N)=O)C(=O)N[C@@H](CCCNC(=N)N)C(=O)N[C@@H](Cc1ccc(O)cc1)C(=O)N[C@@H](Cc1ccc(O)cc1)C(=O)N[C@H](C(=O)N[C@@H](CO)C(=O)N[C@@H](CC(C)C)C(=O)N[C@@H](CCCNC(=N)N)C(=O)N[C@@H](Cc1c[nH]cn1)C(=O)N[C@@H](Cc1ccc(O)cc1)C(=O)N[C@@H](Cc1ccc(O)cc1)C(=O)N[C@@H](CC(N)=O)C(=O)N[C@@H](Cc1c[nH]c2ccccc12)C(=O)N[C@@H](CC(C)C)C(=O)N[C@H](C(=O)N[C@@H](CCCNC(=N)N)C(=O)N[C@@H](CCC(N)=O)C(=O)N[C@@H](CCCNC(=N)N)C(=O)N[C@@H](Cc1ccc(O)cc1)C(N)=O)[C@@H](C)O)C(C)C` [Compound 55, N{alpha-4}-(3-methylbutanoyl)-N{epsilon-7}-(6-[(4S)-4-carboxy-4-(17-carboxyheptadecanamido)butanamido]hexanoyl)-[4A,7K,9E,14E,17I,18Q,22V,28Y,30W,31L]-hPYY(4-36)], the Ki in series [1] came out at 2.96 nM. Also, the EC50 is more than 5000 nM in series [2], more than 5000 nM in series [3], 0.352 nM in series [4] and more than 5000 nM in series [5]. In addition, the “Sol6” value in “Solubility determination” was more than 10.0 mg/mL. For the same compound, the “Sol7” value in the series “Solubility determination” is more than 10.0 mg/mL.

Consider `CC(C)CC(=O)N[C@@H](C)C(=O)N1CCC[C@H]1C(=O)N[C@@H](CCC(=O)O)C(=O)N[C@@H](CCCCNC(=O)CCCCCNC(=O)CC[C@H](NC(=O)CCCCCCCCCCCCCCCCC(=O)O)C(=O)O)C(=O)N1CCC[C@H]1C(=O)N[C@@H](CCC(=O)O)C(=O)N[C@@H](CCC(=O)O)C(=O)N[C@@H](CCC(=O)O)C(=O)N[C@@H](C)C(=O)N[C@H](C(=O)N1CCC[C@H]1C(=O)N[C@@H](CCC(=O)O)C(=O)N[C@@H](CCC(=O)O)C(=O)N[C@@H](CC(C)C)C(=O)N[C@@H](CCC(N)=O)C(=O)N[C@@H](CCCNC(=N)N)C(=O)N[C@@H](Cc1ccc(O)cc1)C(=O)N[C@@H](Cc1ccc(O)cc1)C(=O)N[C@H](C(=O)N[C@@H](CO)C(=O)N[C@@H](CC(C)C)C(=O)N[C@@H](CCCNC(=N)N)C(=O)N[C@@H](Cc1c[nH]cn1)C(=O)N[C@@H](Cc1ccc(O)cc1)C(=O)N[C@@H](Cc1ccc(O)cc1)C(=O)N[C@@H](CC(N)=O)C(=O)N[C@@H](Cc1c[nH]c2ccccc12)C(=O)N[C@@H](CC(C)C)C(=O)N[C@H](C(=O)N[C@@H](CCCNC(=N)N)C(=O)N[C@@H](CCC(N)=O)C(=O)N[C@@H](CCCNC(=N)N)C(=O)N[C@@H](Cc1ccc(O)cc1)C(N)=O)[C@@H](C)O)C(C)C)[C@@H](C)O` [Compound 146, N{alpha-4}-(3-methylbutanoyl)-N{epsilon-7}-(6-[(4S)-4-carboxy-4-(17-carboxyheptadecanamido)butanamido]hexanoyl)-[4A,7K,9E,11E,13T,18Q,22V,28Y,30W,31L]-hPYY(4-36)], for which the Ki in series [1] amounted to 8.93 nM. In addition, in “Solubility determination”, the “Sol6” value was determined as 9.8 mg/mL and the “Sol7” value came to 9.6 mg/mL. This compound came in with an EC50 in series [4] of 0.13 nM. Also, in series [5], the EC50 is more than 5000 nM.

Take `CC(C)CC(=O)N[C@@H](C)C(=O)N1CCC[C@H]1C(=O)N[C@@H](CCC(=O)O)C(=O)N[C@@H](CCCCNC(=O)CCCCCNC(=O)CC[C@H](NC(=O)CCCCCCCCCCCCCCCCC(=O)O)C(=O)O)C(=O)N1CCC[C@H]1C(=O)N[C@@H](CCC(=O)O)C(=O)N[C@@H](C)C(=O)N[C@@H](CC(=O)O)C(=O)N[C@@H](C)C(=O)N[C@@H](CO)C(=O)N1CCC[C@H]1C(=O)N[C@@H](CCC(=O)O)C(=O)N[C@@H](CCC(=O)O)C(=O)N[C@@H](CC(C)C)C(=O)N[C@@H](CCC(N)=O)C(=O)N[C@@H](CCCNC(=N)N)C(=O)N[C@@H](Cc1ccc(O)cc1)C(=O)N[C@@H](Cc1ccc(O)cc1)C(=O)N[C@H](C(=O)N[C@@H](CO)C(=O)N[C@@H](CC(C)C)C(=O)N[C@@H](CCCNC(=N)N)C(=O)N[C@@H](Cc1c[nH]cn1)C(=O)N[C@@H](Cc1ccc(O)cc1)C(=O)N[C@@H](Cc1ccc(O)cc1)C(=O)N[C@@H](CC(N)=O)C(=O)N[C@@H](Cc1c[nH]c2ccccc12)C(=O)N[C@@H](CC(C)C)C(=O)N[C@H](C(=O)N[C@@H](CCCNC(=N)N)C(=O)N[C@@H](CCC(N)=O)C(=O)N[C@@H](CCCNC(=N)N)C(=O)N[C@@H](Cc1ccc(O)cc1)C(N)=O)[C@@H](C)O)C(C)C` [Compound 196, N{alpha-4}-(3-methylbutanoyl)-N{epsilon-7}-(6-[(4S)-4-carboxy-4-(17-carboxyheptadecanamido)butanamido]hexanoyl)-[4A,7K,9E,10A,18Q,22V,28Y,30W,31L]-hPYY(4-36)]: the Ki in series [1] is 3.57 nM. For the same compound, in “Solubility determination”, the “Sol6” value stood at 8.4 mg/mL and the “Sol7” value was 9.8 mg/mL. Also, in series [4], the EC50 is 0.086 nM. The compound also returned an EC50 in series [5] of more than 5000 nM.
